In patent US12378190B2, “Two-component coating system” (COVESTRO (NETHERLANDS) B.V., priority 2020, dated 2025) one finds Rtkn induction level and Genotoxicity test conclusion data, which are given here for two compounds.

Molecules are shown by their SMILES.

Data set [1] concerns Rtkn-GFP mouse embryonic stem (mES) reporter cell line. Kind of data set: ToxTracker genotoxicity assay, Rtkn-GFP reporter induction. Here is the method: A 2 L four-necked flask equipped with a thermometer and overhead stirrer was charged with sodium lauryl sulphate (30% solids in water, 18.6 grams of solution) and demineralized water (711 grams). The reactor phase was placed under N2 atmosphere and heated to 82° C. A mixture of demineralized water (112 grams), sodium lauryl sulphate (30% solids in water, 37.2 grams of solution), methyl methacrylate (209.3 grams), n-butyl acrylate (453.56 grams) and methacrylic acid (34.88 grams) was placed in a large feeding funnel and emulsified with an overhead stirrer (monomer feed). Ammonium persulphate (1.75 grams) was dissolved in demineralized water (89.61 grams) and placed in a small feeding funnel (initiator feed). Ammonium persulphate (1.75 grams) was dissolved in demineralized water (10.5 grams), and this solution was added to the reactor phase. Immediately afterwards, 5% by volume of the monomer feed was added to the reactor phase. The reaction mixture then exothermed to 85° C. and was kept at 85° C. for 5 minutes. Then, the residual monomer feed and the initiator feed were fed to the reaction mixture over 90 minutes, maintaining a temperature of 85° C. After completion of the feeds, the monomer feed funnel was rinsed with demineralized water (18.9 grams) and reaction temperature maintained at 85° C. for 45 minutes. Subsequently, the mixture was cooled to room temperature and brought to pH=7.2 with ammonia solution (6.25 wt. % in demineralized water), and brought to 40% solids with further demineralized water. […] This methodology uses a two step-approach. […] Metabolic was evaluated by addition of S9 liver extract. […] Only GFP expression in intact single cells is determined. […] Components and Abbreviations Used: Dimethylformamide (CAS No. 68-12-2) was obtained from Acros Organics (a division of Thermo Fisher Scientific). […] IPDI (5-isocyanato-1-(isocyanatomethyl)-1,3,3-trimethylcyclohexane, Desmodur® I, isophorone diisocyanate, CAS No. 4098-71-9) was obtained from Covestro. Polyethylene Glycol Monomethyl Ether (CAS No. 9004-74-4) with a number average molecular weight of 1000 Da was obtained from Tokyo Chemical Industry Co., Ltd. Vestanat® T 1890/100, an isophorone diisocyanate based isocyanurate (CAS No. 67873-91-0) was obtained from Evonik. Desmodur® N3600 was obtained from Covestro. 1-methoxy-2-propanol acetate (propylene glycol methyl ether acetate, CAS No. 108-65-6) was obtained from Shell Chemicals. 1-(2-hydroxyethyl)ethyleneimine) (CAS No. 1072-52-2) was obtained from Tokyo Chemical Industry Co., Ltd. Jeffamine® XTJ-436 (CAS No. 118270-87-4) was obtained from Huntsman Bismuth neodecanoate (CAS No. 34364-26-6) obtained from TIB chemicals AG (Mannheim, Germany). Hydrazine (16% solution in water, CAS No. 302-01-2) was obtained from Honeywell. Dimethylol propionic acid (DMPA, CAS No. 4767-03-7) was obtained from Perstop Polyols. Triethylamine (TEA, CAS No. 121-44-8) was obtained from Arkema 1-propanol (CAS No. 71-23-8) was obtained from Sigma-Aldrich. Tin 2-ethylhexanoate (CAS No. 301-10-0) was obtained from Sigma-Aldrich. Dibutyltindilaurate (CAS No. 77-58-7) was obtained from Sigma-Aldrich. Tegomer® D3403 was obtained from Evonik. Polypropyleneglycol with a number average molecular weight of 1000 Da and with a number average molecular weight of 2000 Da was obtained from BASF. 3-Methyl-1-phenyl-2-phospholene-1-oxide (CAS No. 707-61-9) was obtained from Sigma-Aldrich. 1-Butanol (CAS No. 71-36-3) was obtained from Sigma-Aldrich. Sodium lauryl sulphate (30% solution in water, CAS No. 73296-89-6) was obtained from BASF. Methyl methacrylate (CAS No. 80-62-6) was obtained from Lucite Int. n-Butyl acrylate (CAS No. 141-32-2) was obtained from Dow Chemical. Methacrylic acid (CAS No. 79-41-4) was obtained from Lucite Int. Ammonium persulphate (CAS No. 7727-54-0) was obtained from United Initiators. Ammonia (25% solution in water, CAS No. 1336-21-6) was obtained from Merck

The subject of data set [2] is Bscl2-GFP and Rtkn-GFP mES reporter cell lines. Kind of data set: ToxTracker genotoxicity assay, overall conclusion. The conditions noted are these: positive: >=2-fold induction; weakly positive: >1.5 and <2-fold; negative: <=[…] at 10, 25 and 50% cytotoxicity, with and without S9. As for the experimental part: A 2 L four-necked flask equipped with a thermometer and overhead stirrer was charged with sodium lauryl sulphate (30% solids in water, 18.6 grams of solution) and demineralized water (711 grams). The reactor phase was placed under N2 atmosphere and heated to 82° C. A mixture of demineralized water (112 grams), sodium lauryl sulphate (30% solids in water, 37.2 grams of solution), methyl methacrylate (209.3 grams), n-butyl acrylate (453.56 grams) and methacrylic acid (34.88 grams) was placed in a large feeding funnel and emulsified with an overhead stirrer (monomer feed). Ammonium persulphate (1.75 grams) was dissolved in demineralized water (89.61 grams) and placed in a small feeding funnel (initiator feed). Ammonium persulphate (1.75 grams) was dissolved in demineralized water (10.5 grams), and this solution was added to the reactor phase. Immediately afterwards, 5% by volume of the monomer feed was added to the reactor phase. The reaction mixture then exothermed to 85° C. and was kept at 85° C. for 5 minutes. Then, the residual monomer feed and the initiator feed were fed to the reaction mixture over 90 minutes, maintaining a temperature of 85° C. […] Metabolic was evaluated by addition of S9 liver extract. […] Only GFP expression in intact single cells is determined. […]

As for `O=C(NCCCCCCn1c(=O)n(CCCCCCNC(=O)OCCN2CC2)c(=O)n(CCCCCCNC(=O)OCCN2CC2)c1=O)OCCN1CC1` [compound 2], the Rtkn induction level amounted to 2.0 fold in data set [1] (with S9 rat liver extract, 3 h exposure and 24 h recovery, at 10% cytotoxicity); 3.4 fold in data set [1] (with S9 rat liver extract, 3 h exposure and 24 h recovery, at 25% cytotoxicity); 3.0 fold in data set [1] (with S9 rat liver extract, 3 h exposure and 24 h recovery, at 50% cytotoxicity); 1.7 fold in data set [1] (without S9 rat liver extract, 24 h exposure, at 10% cytotoxicity); 2.4 fold in data set [1] (without S9 rat liver extract, 24 h exposure, at 25% cytotoxicity); 2.8 fold in data set [1] (without S9 rat liver extract, 24 h exposure, at 50% cytotoxicity). In data set [2], the Genotoxicity test conclusion result was “genotoxic”.

In the case of `O=C(CCN1CC1)OCC(CO)(COC(=O)CCN1CC1)COC(=O)CCN1CC1` [Comparative Example 3, pentaerythritol tris(3-(1-aziridinyl)propionate)], in data set [2], the Genotoxicity test conclusion entry was “genotoxic”.
